In PubChem BioAssay AID2060905 (Molecular Pharmacology Branch, DTP, NCI, 2025):

Tested on: 282377-053-R-J1-PDC complex spheroid viability
Assay: Anticancer human tumor 282377-053-R-J1-PDC patient-derived colon adenocarcinoma cell line growth inhibition [RAS]
Conditions: for IC50: curve of first compound; for viability, T/C: stronger effect = lower value; active = viability on the fitted dose curve at most 10% of control; inactive = the rest
In short: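 Tumour cells grown as complex spheroids with HUVEC endothelial cells and mesenchymal stem cells, treated with RAS pathway inhibitor combinations. Each agent spans half-log steps from near clinical Cmax, or 10 microM where Cmax is unknown.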

[1] = second compound 0.000949 µM, first compound 0.0316 µM
[2] = second compound 0.000949 µM, first compound 0.1 µM
[3] = second compound 0.000949 µM, first compound 0.316 µM
[4] = second compound 0.000949 µM, first compound 1 µM
[5] = second compound 0.000949 µM, first compound 3.16 µM
[6] = second compound 0.000949 µM, first compound 10 µM
[7] = second compound 0.003 µM, first compound 0.0316 µM
[8] = second compound 0.003 µM, first compound 0.1 µM
[9] = second compound 0.003 µM, first compound 0.316 µM
[10] = second compound 0.003 µM, first compound 1 µM
[11] = second compound 0.003 µM, first compound 3.16 µM
[12] = second compound 0.003 µM, first compound 10 µM
[13] = second compound 0.00949 µM, first compound 0.0316 µM
[14] = second compound 0.00949 µM, first compound 0.1 µM
[15] = second compound 0.00949 µM, first compound 0.316 µM
[16] = second compound 0.00949 µM, first compound 1 µM
[17] = second compound 0.00949 µM, first compound 3.16 µM
[18] = second compound 0.00949 µM, first compound 10 µM
[19] = second compound 0.03 µM, first compound 0.0316 µM
[20] = second compound 0.03 µM, first compound 0.1 µM
[21] = second compound 0.03 µM, first compound 0.316 µM
[22] = second compound 0.03 µM, first compound 1 µM
[23] = second compound 0.03 µM, first compound 3.16 µM
[24] = second compound 0.03 µM, first compound 10 µM
[25] = second compound 0.0949 µM, first compound 0.0316 µM
[26] = second compound 0.0949 µM, first compound 0.1 µM
[27] = second compound 0.0949 µM, first compound 0.316 µM
[28] = second compound 0.0949 µM, first compound 1 µM
[29] = second compound 0.0949 µM, first compound 3.16 µM
[30] = second compound 0.0949 µM, first compound 10 µM
[31] = second compound 0.3 µM, first compound 0.0316 µM
[32] = second compound 0.3 µM, first compound 0.1 µM
[33] = second compound 0.3 µM, first compound 0.316 µM
[34] = second compound 0.3 µM, first compound 1 µM
[35] = second compound 0.3 µM, first compound 3.16 µM
[36] = second compound 0.3 µM, first compound 10 µM
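Note: spheroids exposed to agents for seven days before readout.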
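Throughout, for viability, T/C: luminescence viability as percent of DMSO vehicle control wells.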

CCC(CC)c1cc(NC2CCC(N)C2)n2nccc2n1 (stereo unspecified) + CCn1c(-c2cccnc2C(C)OC)c2c3cc(ccc31)N1CCOC(CC(NC(=O)C(C(C)C)N(C)C(=O)C3(F)CCN(C(=O)C#CC(C)(C)N(C)C)CC3)C(=O)N3CCCC(N3)C(=O)OCC(C)(C)C2)C1
inactive: viability, T/C [1] 98.1% | viability, T/C [2] 105% | viability, T/C [3] 81.3% | viability, T/C [4] 87% | viability, T/C [7] 86.3% | viability, T/C [8] 105% | viability, T/C [9] 79.4% | viability, T/C [10] 81.4% | viability, T/C [11] 10.8% | viability, T/C [13] 114% | viability, T/C [14] 93.9% | viability, T/C [15] 99% | viability, T/C [16] 89% | viability, T/C [17] 9.93% | viability, T/C [19] 81.2% | viability, T/C [20] 111% | viability, T/C [21] 102% | viability, T/C [22] 95.3% | viability, T/C [23] 10.7% | viability, T/C [25] 96.8% | viability, T/C [26] 110% | viability, T/C [27] 89.8% | viability, T/C [28] 77.4% | viability, T/C [29] 11.2% | viability, T/C [31] 112% | viability, T/C [32] 90.2% | viability, T/C [33] 95% | viability, T/C [34] 87.6% | viability, T/C [35] 12.6%
1780 nM: IC50 (second compound 0.3 µM)
active: viability, T/C [5] 8.86% | viability, T/C [6] 3.59% | viability, T/C [12] 3.49% | viability, T/C [18] 2.98% | viability, T/C [24] 4.2% | viability, T/C [30] 4.78% | viability, T/C [36] 4.08%
1610 nM: IC50 (second compound 0.0949 µM)
1720 nM: IC50 (second compound 0.000949 µM)
1850 nM: IC50 (second compound 0.03 µM)
1760 nM: IC50 (second compound 0.00949 µM)
1670 nM: IC50 (second compound 0.003 µM)

CC1(O)CCCC1n1c(=O)c(C(F)F)cc2cnc(NC3CCN(S(C)(=O)=O)CC3)nc21 (stereo unspecified) + CCn1c(-c2cc(N3CCN(C)CC3)cnc2C(C)OC)c2c3cc(ccc31)-c1csc(n1)CC(NC(=O)C1CC1C)C(=O)N1CCCC(N1)C(=O)OCC(C)(C)C2
7030 nM: IC50 (second compound 0.00949 µM)
inactive: viability, T/C [1] 101% | viability, T/C [2] 141% | viability, T/C [3] 112% | viability, T/C [4] 155% | viability, T/C [5] 162% | viability, T/C [7] 116% | viability, T/C [8] 117% | viability, T/C [9] 151% | viability, T/C [10] 146% | viability, T/C [11] 204% | viability, T/C [12] 10.2% | viability, T/C [13] 91.9% | viability, T/C [14] 115% | viability, T/C [15] 165% | viability, T/C [16] 153% | viability, T/C [17] 189% | viability, T/C [19] 112% | viability, T/C [20] 104% | viability, T/C [21] 169% | viability, T/C [22] 182% | viability, T/C [23] 167% | viability, T/C [25] 94.1% | viability, T/C [26] 141% | viability, T/C [27] 139% | viability, T/C [28] 141% | viability, T/C [29] 203% | viability, T/C [31] 106% | viability, T/C [32] 134% | viability, T/C [33] 152% | viability, T/C [34] 190% | viability, T/C [35] 174%
7080 nM: IC50 (second compound 0.3 µM)
7150 nM: IC50 (second compound 0.003 µM)
6750 nM: IC50 (second compound 0.000949 µM)
6920 nM: IC50 (second compound 0.0949 µM)
6980 nM: IC50 (second compound 0.03 µM)
active: viability, T/C [6] 6.35% | viability, T/C [18] 9.24% | viability, T/C [24] 6.22% | viability, T/C [30] 5.83% | viability, T/C [36] 6.62%

O=C(c1ccc(F)c(F)c1Nc1ccc(I)cc1F)N1CC(O)([C@@H]2CCCCN2)C1 + C#Cc1c(F)ccc2cc(O)cc(-c3ncc4c(N5CC6CCC(C5)N6)nc(OCC56CCCN5CC(F)C6)nc4c3F)c12
inactive: viability, T/C (second compound 0.0316 µM, first compound 0.00316 µM) 92% | viability, T/C (second compound 0.0316 µM, first compound 0.01 µM) 73% | viability, T/C (second compound 0.0316 µM, first compound 0.0316 µM) 80.9% | viability, T/C (second compound 0.0316 µM, first compound 0.1 µM) 42.3% | viability, T/C (second compound 0.0316 µM, first compound 0.316 µM) 27.6% | viability, T/C (second compound 0.0316 µM, first compound 1 µM) 19.7% | viability, T/C (second compound 0.1 µM, first compound 0.00316 µM) 86.3% | viability, T/C (second compound 0.1 µM, first compound 0.01 µM) 75.2% | viability, T/C (second compound 0.1 µM, first compound 0.0316 µM) 62.5% | viability, T/C (second compound 0.1 µM, first compound 0.1 µM) 42.5% | viability, T/C (second compound 0.1 µM, first compound 0.316 µM) 26% | viability, T/C (second compound 0.1 µM, first compound 1 µM) 16.9% | viability, T/C (second compound 0.316 µM, first compound 0.00316 µM) 87.7% | viability, T/C (second compound 0.316 µM, first compound 0.01 µM) 77.5% | viability, T/C (second compound 0.316 µM, first compound 0.0316 µM) 58.5% | viability, T/C (second compound 0.316 µM, first compound 0.1 µM) 37.2% | viability, T/C (second compound 0.316 µM, first compound 0.316 µM) 23% | viability, T/C (second compound 0.316 µM, first compound 1 µM) 15.6% | viability, T/C (second compound 1 µM, first compound 0.00316 µM) 75.3% | viability, T/C (second compound 1 µM, first compound 0.01 µM) 77.1% | viability, T/C (second compound 1 µM, first compound 0.0316 µM) 59.1% | viability, T/C (second compound 1 µM, first compound 0.1 µM) 29% | viability, T/C (second compound 1 µM, first compound 0.316 µM) 20.5% | viability, T/C (second compound 1 µM, first compound 1 µM) 14.9% | viability, T/C (second compound 3.16 µM, first compound 0.00316 µM) 79.8% | viability, T/C (second compound 3.16 µM, first compound 0.01 µM) 75.6% | viability, T/C (second compound 3.16 µM, first compound 0.0316 µM) 56.4% | viability, T/C (second compound 3.16 µM, first compound 0.1 µM) 30.5% | viability, T/C (second compound 3.16 µM, first compound 0.316 µM) 20.7% | viability, T/C (second compound 3.16 µM, first compound 1 µM) 15.6% | viability, T/C (second compound 10 µM, first compound 0.00316 µM) 97.2% | viability, T/C (second compound 10 µM, first compound 0.01 µM) 75.1% | viability, T/C (second compound 10 µM, first compound 0.0316 µM) 41.8% | viability, T/C (second compound 10 µM, first compound 0.1 µM) 25.4% | viability, T/C (second compound 10 µM, first compound 0.316 µM) 17.5% | viability, T/C (second compound 10 µM, first compound 1 µM) 12.1%
80 nM: IC50 (second compound 0.0316 µM)
50.4 nM: IC50 (second compound 0.316 µM)
63.5 nM: IC50 (second compound 0.1 µM)
45.5 nM: IC50 (second compound 1 µM)
24.9 nM: IC50 (second compound 10 µM)
42.5 nM: IC50 (second compound 3.16 µM)
